In ChEMBL document CHEMBL1201862, “PubChem BioAssay data set” (2004):
Values joined by “and” are separate entries in the source; they are usually repeats but may differ in a detail not shown here. Equal values may be shown once.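 Where inhibition never reached the appropriate level, the endpoint shown equals the highest concentration tested. Otherwise, values were interpolated linearly from a five-concentration, 48-hour dose response in 96-well plates. GI50 marks 50% less growth.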 Active and inactive are the calls of the source. No stated cut-off is given here; in the data, active = GI50 up to about 1.1 µM and inactive = higher.

Legend:
Assay in all cases: NCI anticancer screen, dose series, 48 h
[1] = tested on: LOX IMVI
[2] = tested on: OVCAR-5
[3] = tested on: OVCAR-3
[4] = tested on: UO-31
[5] = tested on: UACC-62
[6] = tested on: K562
[7] = tested on: IGROV-1
[8] = tested on: CCRF-CEM
[9] = tested on: HCT-15
[10] = tested on: A549
[11] = tested on: SK-MEL-5
[12] = tested on: DU-145
[13] = tested on: ACHN
[14] = tested on: COLO 205
[15] = tested on: RPMI-8226
[16] = tested on: RXF 393
[17] = tested on: NCI-H522
[18] = tested on: SN12C
[19] = tested on: SR
[20] = tested on: HCC 2998

SMILES	GI50 [1]	GI50 [2]	GI50 [3]	GI50 [4]	GI50 [5]	GI50 [6]	GI50 [7]	GI50 [8]	GI50 [9] [µM]	GI50 [10]	GI50 [11]	GI50 [12]	GI50 [13]	GI50 [14]	GI50 [15]	GI50 [16]	GI50 [17]	GI50 [18]	GI50 [19]	GI50 [20]
Cc1cc(C)c(O)c(Cc2cccc(Cc3cc(C)cc(C)c3O)c2O)c1	> 100 µM (inactive)	> 100 µM (inactive)	> 100 µM (inactive)	> 100 µM (inactive)	> 100 µM (inactive)	35.9 µM (inactive)	> 100 µM (inactive)	35.5 µM (inactive)	> 100	> 100 µM (inactive)	> 100 µM (inactive)	> 100 µM (inactive)	> 100 µM (inactive)	> 100 µM (inactive)	> 100 µM (inactive)	> 100 µM (inactive)	> 100 µM (inactive)	> 100 µM (inactive)	77.6 µM (inactive)	
Cc1ccc(-c2cs/c(=N\c3ccccc3)n2NC(=O)c2ccncc2)cc1	34.2 µM (inactive)	40.8 µM (inactive)	35.6 µM (inactive)	30.6 µM (inactive)	20.5 µM (inactive)	15 µM (inactive)	40.3 µM (inactive)	36.6 µM (inactive)	42.5	31.8 µM (inactive)	18.7 µM (inactive)	56.2 µM (inactive)	35.3 µM (inactive)	29.8 µM (inactive)	22.6 µM (inactive)	35.2 µM (inactive)		45.2 µM (inactive)	34.8 µM (inactive)	75.2 µM (inactive)
CCOc1ccccc1-c1nc2c(s1)C(=O)c1ccccc1C2=O	4.37 µM (inactive)	19.7 µM (inactive)	2.25 µM (inactive)	12.6 µM (inactive)	3.78 µM (inactive)	4.61 µM (inactive)	12.2 µM (inactive)		25.7	17.1 µM (inactive)	5.12 µM (inactive)	19.4 µM (inactive)	14.9 µM (inactive)	24.7 µM (inactive)	7.26 µM (inactive)	16 µM (inactive)	11.8 µM (inactive)	18.4 µM (inactive)	6.24 µM (inactive)	14.5 µM (inactive)
COc1cccc2c1-c1c(OC)cccc1SS2	10.7 µM (inactive)	17.8 µM (inactive)	16.3 µM (inactive)	22.8 µM (inactive)	20.1 µM (inactive)	27.5 µM (inactive)	17.4 µM (inactive)		13.4	14.4 µM (inactive)	13.6 µM (inactive)	28.9 µM (inactive)	41.8 µM (inactive)	20 µM (inactive)	11.4 µM (inactive)	17.5 µM (inactive)	19.7 µM (inactive)	13.8 µM (inactive)	16.9 µM (inactive)	20.9 µM (inactive)
O=C(/C=C\c1ccccc1-c1ccccc1)c1ccccc1		> 100 µM (inactive)	> 100 µM (inactive)	> 100 µM (inactive)	> 100 µM (inactive)	> 100 µM (inactive)	> 100 µM (inactive)	> 100 µM (inactive)	> 100	3.93 µM (inactive)	> 100 µM (inactive)	> 100 µM (inactive)	> 100 µM (inactive)	> 100 µM (inactive)	30.8 µM (inactive)	45.5 µM (inactive)	17.9 µM (inactive)	> 100 µM (inactive)	> 100 µM (inactive)	> 100 µM (inactive)
c1csc(-c2sc(-c3ccsc3)cc2Cc2ccsc2)c1	> 10 µM (inactive)				> 10 µM (inactive)	> 10 µM (inactive)	> 10 µM (inactive)	> 10 µM (inactive)	> 10	> 10 µM (inactive)	> 10 µM (inactive)	> 10 µM (inactive)		> 10 µM (inactive)	> 10 µM (inactive)	> 10 µM (inactive)		> 10 µM (inactive)	> 10 µM (inactive)	> 10 µM (inactive)
O=C(NN=C1CCN(Cc2ccccc2)CC1)C(O)(c1ccccc1)c1ccccc1	> 100 µM (inactive)	> 100 µM (inactive)		> 100 µM (inactive)	> 100 µM (inactive)		> 100 µM (inactive)	> 100 µM (inactive)	> 100	> 100 µM (inactive)	> 100 µM (inactive)	> 100 µM (inactive)		> 100 µM (inactive)	> 100 µM (inactive)	> 100 µM (inactive)		> 100 µM (inactive)	> 100 µM (inactive)	> 100 µM (inactive)
CCC1(c2ccc(OC)c(OC)c2)CCN2C(=O)C(O)CC21 (stereo unspecified)	> 100 µM (inactive)	> 100 µM (inactive)	> 100 µM (inactive)	> 100 µM (inactive)	> 100 µM (inactive)	> 100 µM (inactive)	> 100 µM (inactive)	> 100 µM (inactive)	> 100	> 100 µM (inactive)	> 100 µM (inactive)	> 100 µM (inactive)	> 100 µM (inactive)	> 100 µM (inactive)		> 100 µM (inactive)	> 100 µM (inactive)	> 100 µM (inactive)	> 100 µM (inactive)	> 100 µM (inactive)
CN(/N=C/c1ccccc1C(=O)O)C1=NCCCCN1	> 100 µM (inactive)	> 100 µM (inactive)	> 100 µM (inactive)	> 100 µM (inactive)	> 100 µM (inactive)	> 100 µM (inactive)	> 100 µM (inactive)	> 100 µM (inactive)	> 100	> 100 µM (inactive)	> 100 µM (inactive)	> 100 µM (inactive)	> 100 µM (inactive)	> 100 µM (inactive)	> 100 µM (inactive)		19.1 µM (inactive)	> 100 µM (inactive)	> 100 µM (inactive)	> 100 µM (inactive)
COC(=O)[C@@H]1CC(C(C[N+](=O)[O-])c2ccc(O[Si](C)(C)C(C)(C)C)cc2)C(=O)N1C(=O)OC(C)(C)C (stereo partly specified)	> 100 µM (inactive)	> 100 µM (inactive)	> 100 µM (inactive)	32.7 µM (inactive) and 60.7 µM (inactive)		22.9 µM (inactive) and 32.4 µM (inactive)	> 100 µM (inactive)	27.7 µM (inactive) and 18.1 µM (inactive)		67.6 µM (inactive) and 37.4 µM (inactive)		> 100 µM (inactive)				29.9 µM (inactive) and 20.6 µM (inactive)	53.2 µM (inactive) and 60.5 µM (inactive)	43.6 µM (inactive) and 69.8 µM (inactive)	21 µM (inactive) and 33.8 µM (inactive)	
O=[N+]([O-])c1cnc(N(CCO)CCO)s1	> 100 µM (inactive)	> 100 µM (inactive)	> 100 µM (inactive)	> 100 µM (inactive)	> 100 µM (inactive)	> 100 µM (inactive)	> 100 µM (inactive)	79.6 µM (inactive)	> 100	> 100 µM (inactive)	> 100 µM (inactive)	> 100 µM (inactive)	> 100 µM (inactive)	> 100 µM (inactive)		> 100 µM (inactive)	> 100 µM (inactive)	> 100 µM (inactive)	> 100 µM (inactive)	> 100 µM (inactive)
NCCN1CCCCCc2ccccc21	> 10 µM (inactive)		> 10 µM (inactive)	> 10 µM (inactive)	> 10 µM (inactive)	> 10 µM (inactive)	> 10 µM (inactive)	> 10 µM (inactive)	> 10	> 10 µM (inactive)	> 10 µM (inactive)	> 10 µM (inactive)	> 10 µM (inactive)	> 10 µM (inactive)	> 10 µM (inactive)	> 10 µM (inactive)	> 10 µM (inactive)	> 10 µM (inactive)	> 10 µM (inactive)	> 10 µM (inactive)
CC(C)=CCC/C(C)=C/Cc1c2c(c3oc(-c4ccc(O)c(O)c4)c(O)c(=O)c3c1O)C=CC(C)(C)O2		7.18 µM (inactive)	1.32 µM (inactive)	3.44 µM (inactive)	5.31 µM (inactive)	2.44 µM (inactive)	2.11 µM (inactive)	1.79 µM (inactive)	2.1	3.87 µM (inactive)	2.95 µM (inactive)	2.24 µM (inactive)	2.22 µM (inactive)	1.64 µM (inactive)	1.82 µM (inactive)	7.71 µM (inactive)	0.916 µM (active)	5.98 µM (inactive)	1.84 µM (inactive)	
CC(=O)OC12CC[N+]3(C)CCCCC3C1=Nc1ccccc12 (stereo unspecified)	> 100 µM (inactive)	> 100 µM (inactive)	> 100 µM (inactive)	> 100 µM (inactive)	> 100 µM (inactive)	> 100 µM (inactive)	> 100 µM (inactive)	> 100 µM (inactive)	> 100	40.5 µM (inactive)	> 100 µM (inactive)	> 100 µM (inactive)	> 100 µM (inactive)	61 µM (inactive)	> 100 µM (inactive)	> 100 µM (inactive)	> 100 µM (inactive)	> 100 µM (inactive)	> 100 µM (inactive)	
CCCCCCCCCCCCCCCCOCC(Cl)CP(=O)(O)OP(=O)(O)OCC1OC(n2cnc3c(N)ncnc32)C(O)C1O (stereo unspecified)	> 100 µM (inactive)	> 100 µM (inactive)	> 100 µM (inactive)	> 100 µM (inactive)	> 100 µM (inactive)	> 100 µM (inactive)	> 100 µM (inactive)	> 100 µM (inactive)	> 100	> 100 µM (inactive)	> 100 µM (inactive)	> 100 µM (inactive)	> 100 µM (inactive)	> 100 µM (inactive)		61.8 µM (inactive)	> 100 µM (inactive)	> 100 µM (inactive)	> 100 µM (inactive)	> 100 µM (inactive)
